From US7691907B2, “Methods and composition based on discovery of metabolism of nitroglycerin” (priority 2002, dated 2010)
Entries after “also recorded” stand apart in the source; their conditions may differ. Like-named read-outs stand apart in the source and are kept apart here.

Legend:
[1] = target: T1, mtALDH isolated from mouse macrophage RAW 264.7 (Mus musculus, UniProt P47738); type: biochemical
T1 construct: Mouse macrophage RAW 264.7 cells were homogenized in a 30 mM phosphate buffer; endogenous in cells; host or cells: mouse macrophage RAW 264.7 cells (endogenous enzyme purified over DEAE-cellulose, Q-sepharose, Butyl-Sepharose and hydroxyapatite)
T1 sequence (P47738 20-519): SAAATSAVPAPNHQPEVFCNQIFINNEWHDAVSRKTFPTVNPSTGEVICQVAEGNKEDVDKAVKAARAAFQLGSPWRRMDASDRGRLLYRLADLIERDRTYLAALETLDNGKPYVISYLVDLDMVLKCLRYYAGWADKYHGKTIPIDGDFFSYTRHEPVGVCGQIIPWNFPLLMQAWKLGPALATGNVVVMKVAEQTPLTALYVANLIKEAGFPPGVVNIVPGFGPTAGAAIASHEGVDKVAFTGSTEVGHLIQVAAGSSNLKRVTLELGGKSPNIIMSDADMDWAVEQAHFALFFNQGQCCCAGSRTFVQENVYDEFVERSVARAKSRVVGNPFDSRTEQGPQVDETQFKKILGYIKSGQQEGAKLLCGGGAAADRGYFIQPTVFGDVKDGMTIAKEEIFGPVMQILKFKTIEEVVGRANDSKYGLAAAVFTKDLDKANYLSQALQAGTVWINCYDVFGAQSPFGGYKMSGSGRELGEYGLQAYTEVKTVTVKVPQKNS

patient = details: human, in vivo
[2] = target: T2, mouse mitochondria aldehyde dehydrogenase (mtALDH) purified from RAW264.7 cells (Mus musculus, UniProt P47738); assay: GTN reductase activity of purified enzyme (1,2-GDN formation from [14C]GTN, TLC-LSS); type: biochemical; details: for restoration of catalytic activity lost upon removal of DTT by dialysis: purified enzyme after dialysis
T2 construct: Mouse macrophage RAW 264.7 cells were homogenized in a 30 mM phosphate buffer; endogenous in cells; host or cells: mouse macrophage RAW 264.7 cells (endogenous enzyme purified over DEAE-cellulose, Q-sepharose, Butyl-Sepharose and hydroxyapatite)
T2 sequence (P47738 20-519): T1 sequence (P47738 20-519)

[3] = cited from earlier work
[4] = test system: rabbit thoracic aorta rings; assay: tissue or blood; type: cell-based, New Zealand white rabbits; details: for EC50: Oryctolagus cuniculus, read-out: EC50 for GTN relaxation
mtALDH = target: T3, mtALDH (Oryctolagus cuniculus, UniProt G1SUY2); assay: mtALDH activity in partially purified preparations of GTN tolerant aortic rings; type: biochemical, rabbit
T3 construct: from tissue; host or cells: thoracic aorta rings of New Zealand white rabbits, made GTN tolerant; partially purified preparation
T3 sequence (G1SUY2 1-521): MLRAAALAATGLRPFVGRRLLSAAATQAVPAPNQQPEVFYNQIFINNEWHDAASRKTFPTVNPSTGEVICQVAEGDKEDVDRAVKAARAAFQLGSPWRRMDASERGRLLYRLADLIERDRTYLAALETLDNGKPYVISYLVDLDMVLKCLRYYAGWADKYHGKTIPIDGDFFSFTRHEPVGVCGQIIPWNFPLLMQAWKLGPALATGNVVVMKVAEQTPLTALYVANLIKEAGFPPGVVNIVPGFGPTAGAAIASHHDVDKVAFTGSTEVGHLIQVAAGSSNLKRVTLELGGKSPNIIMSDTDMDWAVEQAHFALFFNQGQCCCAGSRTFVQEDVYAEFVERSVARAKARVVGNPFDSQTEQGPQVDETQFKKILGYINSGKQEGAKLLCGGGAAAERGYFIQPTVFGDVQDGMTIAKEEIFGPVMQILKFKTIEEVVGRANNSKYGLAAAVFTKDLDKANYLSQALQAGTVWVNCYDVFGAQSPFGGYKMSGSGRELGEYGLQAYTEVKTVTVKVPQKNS

[5] = test system: mitochondria isolated from RAW 264.7 cells; assay: 1,2-GDN generation from GTN by mitochondria isolated from RAW 264.7 cells; type: biochemical, mouse
Experimental: During protein purification, the assay mixtures (1 ml samples) contained 100 mM KPi, pH7.5, 0.5 mM EDTA, 1 mM NADH, 1 mM NADPH, 0.1 or 1 μM [^14C]GTN and protein sample from column fractions. After incubation at 37° C. for 10 to 30 minutes, the reaction was stopped (by adding dry ice) and GTN and its metabolites were extracted by 3×4 ml ether, the ether phase was combined and the solvent was evaporated by a stream of nitrogen. The final volume was controlled to less than 100 μl in ethanol for subsequent thin layer chromatography (TLC) separation and liquid scintillation spectrometry counting, i.e., (TLC-LSS), to determine amount of [^14C]1,2-GDN, to select samples with enzymatic activity (i.e., 1,2-GDN producing activity).
At the end of the procedure, the protein had been purified to near homogeneity (90 fold), with a 14.4% overall yield; its estimated molecular weight on SDS gel is about 53 kDa. N-terminal sequence of 30 amino acid residues was obtained by Edman degradation and matched exactly with mouse mitochondria aldehyde dehydrogenase.

[6] = test system: cGMP accumulation in the aortic rings; assay: cGMP accumulation in aortic rings; type: cell-based, New Zealand white rabbits; details: for effect on increase in cGMP produced by GTN: 1 μM for 1 minute
[7] = test system: organic nitrate ester reductase activity (mtALDH) in aorta rings; assay: 1,2-GDN formation from GTN in aorta rings; type: cell-based, New Zealand white rabbits; details: for activity at 1000 µM: Oryctolagus cuniculus, read-out: 1,2-GDN generation in the aorta rings, % of control activity
[8] = test system: anesthetized rabbits (arterial blood pressure); assay: Systemic hypotensive effects of GTN infusion in anesthetized rabbits; type: in vivo, New Zealand white rabbits; details: for effect on SNP or adenosine mediated hypotension: inhibitor (~5 mM) infused intravenously 20 minutes prior; for effect on hypotensive effects of GTN: inhibitor (~5 mM) infused intravenously 20 minutes prior to GTN
[9] = 1 mM, 20 minutes before 1 μM GTN, 5 minutes 37° C.

## O=C(O)CCCC[C@@H](S)CCS (racemic) [DHLA, dihydrolipoic acid]
[1]
  activation of mtALDH to cause conversion of GTN to 1,2-GDN (FIG. 1): best activators
patient; iv, 50 mg/kg
  clinical outcome: reverses tolerance and maintains mtALDH activity

## O[C@H](CS)[C@H](O)CS (racemic) [DTT, dithiothreitol]
[1]
  activation of mtALDH to cause conversion of GTN to 1,2-GDN (FIG. 1): best activators
[2]; purified enzyme
  dependence of 1,2-GDN formation by purified enzyme on added dithiol: could only catalyze 1,2-GDN formation when dithiol
[2]
  restoration of catalytic activity lost upon removal of DTT by dialysis: fully restored

## O=C(O)CCCC[C@@H]1CCSS1 (racemic) [lipoic acid]
[2]; purified enzyme
  dependence of 1,2-GDN formation by purified enzyme on added dithiol: could only catalyze 1,2-GDN formation when dithiol

## O=NOC(CO)CO [2 glycerol mononitrite, 2-glycerol mononitrite]
patient
  angiography the following year: no progression of atherosclerosis
  clinical outcome: relief of symptoms

## O=[N+]([O-])OCC(CO[N+](=O)[O-])O[N+](=O)[O-] [GTN, glyceryl trinitrate]
[3]
  solubility in glycerol: sparingly soluble
[4]; 0.5 h
  EC50: 3760 ± 2050 nM
[4]
  EC50: 22.6 ± 9.2 nM
mtALDH
  activity of mtALDH: inhibited
[5]; mitochondria isolated from RAW 264.7 cells, 1 mM NADH/NADPH
  1,2-GDN generation from GTN: 0.29 nmol/h/mg
[5]; mitochondria-free supernatant
  1,2-GDN generation from GTN, residual activity: no residual activity
[6]; GTN tolerant rings
  cGMP accumulation from GTN treatment: abolished
[2]; purified enzyme
  1,3-GDN formation from GTN: below detection limits
[2]; purified enzyme, GTN 0.1 to 10 μM
  rates of 1,2-GDN formation versus GTN concentration: linear
[2]; purified enzyme, n=3
  product ratio of 1,2-GDN/NOx (nitrite plus nitrate): 0.73±0.05
  product ratio of 1,2-GDN/nitrite: 0.83±0.14
patient
  blood pressure after drop: 100 mm Hg
[7]; GTN-tolerant rings compared to control
  decrease of reductase activity as measured by 1,2-GDN formation: 60.4%

## O=[N+]([O-])O[C@@H]1CO[C@H]2[C@@H]1OC[C@@H]2O [Imdur]
patient
  cross-tolerance with nitroglycerin: no cross-tolerance

## N[C@@H](CCC(=O)N[C@@H](CSN=O)C(=O)NCC(=O)O)C(=O)O [S-nitrosoglutathione]
patient
  clinical outcome: improvement of dyspnea and relief of angina; also recorded: relief of symptoms

## O=C(O)CCP(CCC(=O)O)CCC(=O)O [TCEP, tris(2-carboxyethylphosphine)]
[1]; 1 mM GTN, excess mtALDH, 37° C. 10-30 minutes, DTT 1 mM, DHLA 0.5 and 0.1 mM, TCEP 1 mM
  activation of mtALDH to cause conversion of GTN to 1,2-GDN (FIG. 1): best activators
patient
  clinical outcome: tolerance is reversed and angina resolves

## NCCCNCCSP(=O)(O)O [amifostine]
patient
  clinical outcome: resolution rectal pain
  improvement in FEV 1: 12%

## CCCCCO[N+](=O)[O-] [amyl nitrate]
patient
  clinical outcome: improvement in dyspnea and symptoms of fatigue

## CCN(CC)C(=S)SSC(=S)N(CC)CC [antibuse]
patient; po
  clinical outcome: without headache or symptomatic hypotension

## OC(O)C(Cl)(Cl)Cl [chloral hydrate]
[4]
  increase of GTN EC50 by inhibitor/competitive substrate: 8.9 fold
[8]
  effect on SNP or adenosine mediated hypotension: little or no effect
  effect on hypotensive effects of GTN: significantly attenuated
[6]
  effect on increase in cGMP produced by GTN: completely blocked
patient
  clinical outcome: resolution of symptoms; also recorded: without a decline in blood pressure; also recorded: without a fall in blood pressure; also recorded: improvement in wheezing and shortness of breath
patient; iv
  clinical outcome: left ventricular function is largely preserved
patient; po
  clinical outcome: blood pressure is restored
  systolic blood pressure after rise: 160 mm Hg
[7]; [9]
  activity at 1000 µM: 27.6%

## N#CN [cyanamide]
[4]
  increase of GTN EC50 by inhibitor/competitive substrate: 4.9 fold
[8]
  effect on SNP or adenosine mediated hypotension: little or no effect
  effect on hypotensive effects of GTN: significantly attenuated
[6]; 100 μM-10 nM
  reduction of the cGMP increase produced by GTN: 46%
[7]; [9]
  activity at 1000 µM: 56.9%

## CCON=O [ethyl nitrite]
patient; iv
  clinical outcome: Anginal symptoms resolve
  systolic blood pressure after fall: 120 mm Hg

## Cc1cnc(C(=O)NCCc2ccc(S(=O)(=O)NC(=O)NC3CCCCC3)cc2)cn1 [glipizide]
patient; iv
  clinical outcome: preservation of left ventricular function

## N[C@@H](CCC(=O)N[C@@H](CS)C(=O)NCC(=O)O)C(=O)O [glutathione]
[2]
  restoration of catalytic activity lost upon removal of DTT by dialysis: not

## O=CC[N+](=O)[O-] [nitroacetaldehyde]
patient; 0.1 mg/kg
  clinical outcome: relief of dyspnea

## [Cl-].[O-][N+](=S)CCCC[P+](c1ccccc1)(c1ccccc1)c1ccccc1 [thionitrobutyltriphenylphosphonium chloride]
patient; iv, 15 mg/kg
  clinical outcome: relief of symptoms and enhanced sensitivity to nitroglycerin

## acetaldehyde
[4]
  increase of GTN EC50 by inhibitor/competitive substrate: 4.4 fold
[6]
  effect on increase in cGMP produced by GTN: completely blocked
patient; iv
  clinical outcome: normalizing blood pressure
[7]; [9]
  1,2-GDN generation in the aorta rings, % of control activity: 52.5%

## nitric oxide [NO solutions]
[4]
  effect of preincubation with the mtALDH inhibitors on relaxation induced by this vasodilator: did not attenuate relaxation
